The text below walks through data of patent US20070191400A1, “Pharmaceutical compositions comprising anti-inflammatory quinazolinecarboxamide derivatives” (Rimonyx Pharmaceuticals Ltd., priority 2004, published 2007).

Assay [1] addresses T1, Recombinant Human L-Selectin/IgG binding to heparin (Homo sapiens, UniProt P14151).
T1 construct: purchased Research and Development Systems 728-LS
T1 sequence (P14151 39-332 limits assumed): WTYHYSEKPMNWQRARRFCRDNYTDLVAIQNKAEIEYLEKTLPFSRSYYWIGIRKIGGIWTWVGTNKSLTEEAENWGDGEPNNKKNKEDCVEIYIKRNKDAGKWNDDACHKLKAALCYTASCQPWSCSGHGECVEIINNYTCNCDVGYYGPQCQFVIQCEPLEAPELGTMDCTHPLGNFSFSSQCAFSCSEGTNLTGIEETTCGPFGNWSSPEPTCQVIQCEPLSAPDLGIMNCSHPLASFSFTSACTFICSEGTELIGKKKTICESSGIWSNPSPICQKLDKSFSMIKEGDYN
Nature of the assay: Inhibition of L-selectin binding to heparin (ELISA, immobilized heparin-BSA). To be noted: for IC50: compounds tested at 0.01 to 300 μM, representative results, read-out: IC-50, inhibition of L-Selectin binding to heparin; for inhibition at 30 µM: read-out: % Inhibition at 30 microMolar conc. (L-Selectin binding to heparin). The method, then:
An in vitro assay was used to assess the ability of test compounds according to formula I to inhibit the interactions of L-selectin with HS-GAGs. The assay was suitable for determining the concentration required for 50% inhibition (IC-50) for each specific compound. In the assay, the GAG used was heparin. Thus, porcine intestinal mucosa heparin conjugated to Bovine Serum Albumin (Heparin-BSA; Sigma Cat. No. H0403) at 5 mg/ml in Phosphate-Buffered Saline (PBS; pH 6.5) was added to a 96-well polystyrene ELISA plate (NUNC Cat. No. 442404; 0.1 ml per well) and incubated over night at 4° C. Following the incubation, the plate was washed thoroughly, by immersion, with de-ionized water and PBS (pH 6.5). The ELISA plate was then blocked with BSA (ICN Cat. No.160069, 3%, 200 μl per well) for 1 hour at room temperature. Following blocking, the plate was washed with de-ionized water, and then with PBS (pH 6.5) containing Tween 20 (Sigma Cat. No. P-1379, 0.05%). Compounds were synthesized or purchased from suppliers of chemical compounds such as ChemDiv Labs (San Diego, Calif.), dissolved in DMSO, diluted in PBS and added to the wells at various concentrations in the range of 0.01 to 300 μM. Recombinant Human L-Selectin/IgG (Research and Development Systems Cat. No.728-LS) dissolved in PBS supplemented with BSA (0.1%) and calcium chloride (1 mM) was added to the ELISA plate (100 μl per well) and incubated for 60 minutes at room temperature with shaking. Following incubation, the plate was washed with de-ionized water and three times with PBS (pH 6.5) containing Tween 20. Anti-Human IgG Peroxidase Conjugate (1:5000; Sigma Product No. A8667) diluted in PBS supplemented with BSA (0.1%) and calcium chloride (1 mM) was added to the ELISA plate (100 μl per well) and incubated for 30 minutes at room temperature with shaking. The plate was then washed with de-ionized water and three times with PBS (pH 6.5) containing Tween 20. The peroxidase substrate chromogen tetramethyl benzidine (TMB; Dako Cat. No. S1599) was added (100 μl per well) to the ELISA plate and incubated at room temperature. After 15 minutes, ELISA Stop Solution (hydrochloric acid 1N, sulfuric acid 3N) was added (200 μl per well) to stop the peroxidase catalyzed colorimetric reaction. The Optical Density (OD) of the samples was measured at 450 nm using an ELISA plate reader (Dynatech MR5000). Data were analyzed with Graphpad Prism software and IC-50 values were established.

The target of assay [2] is T2, CMV envelope glycoprotein B binding to immobilized heparin (Human cytomegalovirus, UniProt P06473).
T2 construct: purchased Research Diagnostics, INC; RDI-RCMVAG-B
Nature of the assay: Inhibition of CMV envelope glycoprotein B binding to immobilized heparin (ELISA). To be noted: for inhibition at 30 µM: read-out: % Inhibition at 30 microMolar conc. (CMV envelope glycoprotein B binding to immobilized heparin); for inhibition at 100 µM: read-out: % Inhibition at 100 microMolar conc. (CMV envelope glycoprotein B binding to immobilized heparin). Here is the method:
Porcine intestinal mucosa heparin conjugated to Bovine Serum Albumin (Heparin-BSA; Sigma Cat. No. H0403) at 5 mg/ml in Phosphate-Buffered Saline (PBS; pH 6.5) was added to a 96-well polystyrene ELISA plate (NUNC Cat. No. 442404; 0.1 ml per well) and incubated over night at 4° C. Following the incubation, the plate was washed consecutively, by immersion, with de-ionized water and PBS (pH 6.5). The ELISA plate was then blocked with BSA (ICN Cat. No. 160069, 3%, 200 μl per well) for 1 hour at room temperature. Following blocking, the plate was washed with de-ionized water, and then with PBS (pH 6.5) plus Tween 20 (0.05%). CMV envelope glycoprotein B (Research Diagnostics, INC. Cat. No. RDI-RCMVAG-B) dissolved in PBS (supplemented with BSA (0.1%)) was added to the ELISA plate (100 μl per well) and incubated for 60 minutes at room temperature with shaking. Following incubation, the plate was washed with de-ionized water and with PBS (pH 6.5) plus Tween. Mouse anti-human Cytomegalovirus gB antibody (Research Diagnostics, INC. Cat. No. RDI-CMVG Babm) diluted in PBS (supplemented with BSA(0.1%)), 1:2000, was added to the ELISA plate (100 μl per well) and incubated for 90 minutes at room temperature with shaking. Following the incubation, the plate was washed with de-ionized water and PBS (pH 6.5) plus Tween. Goat anti-Mouse IgG (H&L) Peroxidase Conjugated antibody (Chemicon International, Inc. Cat. No. AP124P) diluted in PBS (supplemented with BSA (0.1%)), 1:1000, was added to the ELISA plate (100 μl per well) and incubated for 30 minutes at room temperature with shaking. Following the incubation, the plate was washed with de-ionized water and with PBS (pH 6.5) plus Tween. The peroxidase substrate chromogen, TMB (Dako Cat. No. S1599) was added (100 μl per well) to the ELISA plate and incubated at room temperature. After 15 minutes, ELISA Stop Solution (hydrochloric acid iN, sulfuric acid 3N) was added (200 μl per well) to stop the peroxidase catalyzed colorimetric reaction. The Optical Density (OD) of the samples was measured at 450 nm using an ELISA plate reader (Dynatech MR5000).
The CMV envelope glycoprotein B (GBVP) binding assay described above was used to screen a synthetic chemical compound collection on 96-well plates. The compound collection was purchased from ChemDiv Inc. (San Diego, Calif.). […] Individual compounds at a final concentration of 30 or 100 μM were co-incubated with the GBVP on plates containing immobilized heparin and, following washing, bound GBVP was detected with anti-CMV GBVP antibody and secondary antibody conjugated to horseradish peroxidase, as described above. Following color development, the % inhibition compared to control (no compound) for every compound was determined. Compounds that inhibited at least 30% of the signal were scored as hits.
In general terms: ELISA stands for enzyme-linked immunosorbent assay.

The subject of assay [3] is BALB/c mice. Nature of the assay: Carrageenan-induced paw edema. The class given is in vivo, mouse. Here is the method: Acute edema was induced in the left hind paw of BALB/c mice (12 mice/group) by injecting 0.02 ml of freshly prepared solution of 2% carrageenan (Sigma) after 60 min of test compound administration (Torres, S. R. et al., European Journal of Pharmacology 408: 199-211, 2000). […], which served as a control. Carrageenan was injected under the plantar region of […] and the paw thickness was measured at 2,4 and 24 hours after carrageenan challenge using a Mitutoyo engineer's micrometer expressed as the difference between right and left pad as mean ±SEM.
A general note: In the carrageenan paw model, swelling and tenderness develop within hours.

In assay [4] the test system is BALB/c mice. Nature of the assay: Thioglycollate-induced leukocyte and neutrophil infiltration into mouse peritoneum. The class given is in vivo. To be noted: 10 mg/kg i.p. Here is the method: BALB/c mice (Velaz, Prague; 6 weeks old, ˜20 g in weight, 15 mice/group) received intraperitoneal injection of an inhibitor compound in 0.2 ml DMSO/Tween/sterile saline 1 hour before administration of thioglycollate (Sigma). Control groups received vehicle and sham controls received no thioglycollate. Mice were injected intraperitoneally with 1 ml of 3% thioglycollate broth (Xie, X. et al., J. Biol. Chem., 275, 34818-34825, 2000). Mice were sacrificed after 3 hours, and the peritoneal cavities were lavaged with 5 ml of ice-cold saline containing 2 mM EDTA to prevent clotting. After red blood cell lysis, leukocytes were counted in a hemocytometer. Neutrophils were counted after staining with Türck's reagent (Merck, Darmstadt, Germany). Data was expressed as mean ±SEM, and statistical analysis was performed by Student t test. A value of p<0.05 was taken to denote statistical significance.

The subject of assay [5] is BALB/c mice. Kind of assay: Delayed-type hypersensitivity (DTH), oxazolone mouse ear-swelling test. It is filed as in vivo. To be noted: 25 mg/kg per os, 1 hr prior to challenge; 24 hours after challenge. The method, then: BALB/c mice (Velaz, Prague, Czech Republic; 8 weeks old; 15 animals per group) were sensitized by topical application of a 2% oxazolone (4-ethoxymethylene -2-phenyl-2-oxazoline-5-one; Sigma, St Louis, Mo.) solution in acetone/olive oil (4:1 vol/vol) to shaved abdomen (50 μl) and to each paw (5 μl) (Lange-Asschenfeldt B. et al., Blood 99:538-545, 2002). Five days after sensitization, right ears were challenged by topical application of 10 μl of a 1% oxazolone solution, whereas left ears were treated with vehicle alone. Compounds were administered 1 hr prior to challenge. The extent of inflammation was measured 24 hours after challenge, using the mouse ear-swelling test. Animals were numbered (tail marking) and weighed and the thickness of both ears was recorded with a constant-loading dial micrometer (Mitutoyo, Tokyo). The unpaired Student t-test was used for statistical analyses.

T2 sequence (P06473 32-906): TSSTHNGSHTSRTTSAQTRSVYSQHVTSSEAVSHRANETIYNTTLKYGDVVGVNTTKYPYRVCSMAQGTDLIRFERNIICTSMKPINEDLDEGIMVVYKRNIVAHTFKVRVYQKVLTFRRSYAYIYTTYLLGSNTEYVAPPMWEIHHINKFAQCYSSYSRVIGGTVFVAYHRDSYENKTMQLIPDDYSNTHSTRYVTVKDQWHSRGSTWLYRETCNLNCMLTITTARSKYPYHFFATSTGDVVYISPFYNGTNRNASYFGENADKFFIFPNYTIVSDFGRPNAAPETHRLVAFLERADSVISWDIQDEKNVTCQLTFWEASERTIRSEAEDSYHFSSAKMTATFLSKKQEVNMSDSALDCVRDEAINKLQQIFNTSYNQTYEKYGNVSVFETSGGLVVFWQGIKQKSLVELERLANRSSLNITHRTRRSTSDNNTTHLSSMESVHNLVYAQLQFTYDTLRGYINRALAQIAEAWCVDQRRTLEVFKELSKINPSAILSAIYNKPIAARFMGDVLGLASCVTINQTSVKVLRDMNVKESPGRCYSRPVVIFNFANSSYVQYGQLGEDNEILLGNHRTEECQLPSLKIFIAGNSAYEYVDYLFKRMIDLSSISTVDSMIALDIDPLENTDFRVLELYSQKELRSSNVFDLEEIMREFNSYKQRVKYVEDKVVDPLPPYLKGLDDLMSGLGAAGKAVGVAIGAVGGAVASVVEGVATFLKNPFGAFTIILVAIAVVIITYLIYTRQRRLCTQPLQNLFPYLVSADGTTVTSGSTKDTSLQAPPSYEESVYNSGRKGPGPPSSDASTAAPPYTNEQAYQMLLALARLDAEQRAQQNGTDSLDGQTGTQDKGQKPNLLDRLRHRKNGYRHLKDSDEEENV

As to “2-[[2-[[(3-chlorophenyl)methyl]thio]-3-pentyl-3,4-dihydro-4-oxo-N-(4-methylpiperazin -7-quinazolinecarboxamide [Compound 8]”, the % Inhibition (commonly the relative decrease from the control value, in per cent) at 30 microMolar conc. (L-Selectin binding to heparin) in assay [1] (30 microMolar) stood at 59%.

As to `O=C(NCCCN1CCOCC1)c1ccc2c(=O)n(-c3ccc(F)cc3)c(SCc3ccc(Cl)cc3)nc2c1` [Compound 1, 2-[[(4-chlorophenyl)methyl]thio]-3-(4-fluorophenyl)-3,4-dihydro-4-oxo-N-[3-(4-morpholinyl)propyl]-7-quinazolinecarboxamide], the inhibition (commonly the relative decrease from the control value, in per cent) at 30 µM in assay [2] amounted to 33%. For the same compound, the “Inhibition of paw edema (difference in paw thickness)” value in assay [3] (1 mg/kg oral, 24 hours after induction) was “inhibited paw edema”. Also, the IC50 in assay [1] stood at 7 ± 1 µM. The “Leukocyte migration into the peritoneal cavity” value in assay [4] (1 hour before thioglycollate, 3 hours) is given as “inhibited efficiently”. Besides, the “Neutrophil accumulation in the peritoneal cavity” value in assay [4] (3 hours after thioglycollate) was 48 % of control value.

Take `Cc1ccc(CSc2nc3cc(C(=O)NCCCN4CCOCC4)ccc3c(=O)n2-c2ccc(F)cc2)cc1` [Compound 2, 2-[[(4-methylphenyl)methyl]thio]-3-(4-fluorophenyl)-3,4-dihydro-4-oxo-N-[3-(4-morpholinyl)propyl]-7-quinazolinecarboxamide]: the “Inhibition of DTH (difference in ear thickness)” value in assay [5] is recorded as “inhibited DTH”. Besides, the inhibition at 100 µM in assay [2] was 86%. In addition, the IC50 in assay [1] amounted to 24 ± 1.2 µM.

For `O=C(NCCCN1CCOCC1)c1ccc2c(=O)n(-c3ccc(F)cc3)c(SCc3cccc(F)c3)nc2c1` [Compound 3, 2-[[(3-fluorophenyl)methyl]thio]-3-(4-fluorophenyl)-3,4-dihydro-4-oxo-N-[3-(4-morpholinyl)propyl]-7-quinazolinecarboxamide], in assay [2], the inhibition at 30 µM was determined as 85% and the inhibition at 100 µM was 88%. In addition, the IC50 in assay [1] was determined as 22 ± 1.2 µM.

Consider `COCCNC(=O)c1ccc2c(=O)n(Cc3ccco3)c(SCc3cc(=O)n4ccccc4n3)nc2c1` [Compound 5, 2-[[(4-oxo-4H-pyrido [1,2-a]pyrimidin-2-yl)methyl]thio]-3-(2-furanylmethyl) -3,4-dihydro-4-oxo-N-(2-methoxyethyl)-7-quinazolinecarboxamide], for which the inhibition at 30 µM in assay [1] was determined as 50%. The inhibition at 100 µM in assay [1] (read-out: % Inhibition at 100 microMolar conc. (L-Selectin binding to heparin)) was 52%.

With `O=C(CSc1nc2cc(C(=O)NCCCN3CCCCC3)ccc2c(=O)n1CC1CCCO1)c1ccccc1` (stereo not shown) [Compound 6, 2-[(2-oxo-2-phenylethyl)thio]-3-[(tetrahydro-2-furanyl)methyl]-3,4-dihydro-4-oxo -N-[3-(1-piperidinyl)propyl]-7-quinazolinecarboxamide], the inhibition at 30 µM in assay [1] amounted to 30%.

`CCCCCn1c(SCc2ccncc2)nc2cc(C(=O)N3CCN(C(=O)OCC)CC3)ccc2c1=O` [Compound 7, 4-[[3,4-dihydro-4-oxo-3-pentyl-2-[(4-pyridinylmethyl)thio]-7-quinazolinyl]carbonyl]-1-piperazinecarboxylic acid ethyl ester]: the inhibition at 30 µM in assay [1] came to 83%.

On to `CC(C)Cn1c(S)nc2cc(C(=O)NCCCn3ccnc3)ccc2c1=O` [Compound 9, 2-mercapto-3-(2-methylpropyl-3)-3,4-dihydro-4-oxo-N-[3-(1N-imidazol-1-yl)propyl]-7-quinazolinecarboxamide], for which the “Inhibition of paw edema (difference in paw thickness)” value in assay [3] (50 mg/kg oral, measured after 24 hours) is “inhibited paw edema”. Further, the IC50 in assay [1] came out at 21 ± 1.6 µM.

Regarding `CN1CCN(C(=O)c2ccc3c(=O)n(-c4ccccc4)c(SCC(=O)C(C)(C)C)nc3c2)CC1` [Compound 10], the IC50 in assay [1] amounted to 22 ± 1.5 µM.
